Patent US8828930B2, “Hepatitis C virus NS3 protease inhibitors” (Merck Sharp & Dohme Corp., priority 2009, dated 2014)
Read-outs that look alike come from different tables or passages of the source.

Columns and labels:
[1] = Plasma and liver concentrations and pharmacokinetics (Rat PK); type: in vivo; set-up: Rat PK 5 mpk AUC: unit not given here; details: for concentration at 4 h: 5 mg/kg, 5 mpk, liver concentration at 4 h; for Rat PK 5 mpk AUC: area under the plasma concentration/time curve
Experimental: Test compounds were dissolved in a suitable dosing vehicle for i.v. administration (e.g., 20%:60%:20% DMSO:PEG400:H2O) or per oral administration (e.g., 10% POLYSORBATE80:90% H2O or 100% PEG400). Animals were administered (n=2 or 3) using a crossover study design for non-rodents. Plasma samples were collected at time points between 2 minutes and 24 hours, and compound levels were determined by RP-LC/MS/MS. Liver samples were collected post-mortem in rat. Liver samples were weighed, homogenized, and diluted using techniques known to those skilled in the art, and compound levels were determined by RP-LC/MS/MS.
Pharmacokinetic parameters were calculated based on non-compartmental analysis (e.g., using WATSON, WINNOLIN). Predose concentrations that were below the limit of quantitation (BLQ) were assigned a value of 0, Standard pharmacokinetic parameters CLp, Vdss, half-life (only for IV), % F, Cmax, Tmax, AUC0-last, AUC0-infinity were calculated. AUC values were calculated using linear trapezoidal method for ascending concentrations and the log trapezoidal method for descending concentrations.

NS3/4A protease gt 1b = NS3/4A protease gt 1b (Hepatitis C virus genotype 1b, UniProt P26663); experiment: HCV NS3 protease time-resolved fluorescence (TRF) assay, NS3/4A inhibitory activity (Ki), gt 1b; type: biochemical; details: NS3/4A enzyme
Experimental: (§1) The HCV NS3 protease inhibitory activity of the present compounds may be tested using assays known in the art. One such assay is HCV NS3 protease time-resolved fluorescence (TRF) assay as described below and in WO 2006/102087. Other examples of such assays are described in, for example, WO 2005/046712. HCV NS3 protease inhibitors, such as those described herein have a Ki less than 50 μM, such as less than 10 μM, and less than 100 nM. Ki is determined by an NS3 protease assay. The assay is performed in a final volume of 100 μl in assay buffer containing 50 mM HEPES, pH 7.5, 150 mM NaCl, 15% glycerol, 0.15% TRITON X-100, 10 mM DTT, and 0.1% PEG 8000. NS3 protease is preincubated with various concentrations of inhibitors in DMSO for 30 minutes. The reaction is initiated by adding the TRF peptide substrate (final concentration 100 nM). NS3 mediated hydrolysis of the substrate is quenched after 1 hour at room temperature with 100 μl of 500 mM MES, pH 5.5. Product fluorescence is detected using either a VICTOR V2 or FUSION fluorophotometer (PERKIN ELMER LIFE AND ANALYTICAL SCIENCES) with excitation at 340 nm and emission at 615 nm with a 400 μs delay. Testing concentrations of different enzyme forms are selected to result in a signal to background ratio (SIB) of 10-30. IC50 values are derived using a standard four-parameter fit to the data. Ki values are derived from IC50 values using the following formula, IC50=Ki(1+[S]/KM), Eqn (1), where [S] is the concentration of substrate peptide in the reaction and KM is the Michaelis constant. See Paola Gallinari et al., Modulation of Hepatitis C Virus NS3 Protease and Helicase Activities through the Interaction with NS4A, 38 BIOCHEM. 5620 (1999); Paola Gallinari et al., Multiple Enzymatic Activities Associated with Recombinant NS3 Protein of Hepatitis C Virus, 72(8) J. VIROLOGY 6758 (1998); Mariana Taliani et al., A Continuous Assay of Hepatitis C Virus Protease Based on Resonance Energy Transfer Depsipeptide Substrates, 240 ANAL. BIOCHEM. 60 (1996).
(§2) This NS3 protease assay was performed in a final volume of 100 μl assay buffer containing 50 mM HEPES, pH 7.5, 150 mM NaCl, 15% glycerol, 0.15% TRITON X-100, 10 mM DTT, and 0.1% PEG 8000. NS3/4A protease was pre-incubated with various concentrations of inhibitors in DMSO for 30 minutes. The reaction was initiated by adding the TRF peptide substrate (final concentration 100 nM). NS3 mediated hydrolysis of the substrate was quenched after 1 hour at RT with 100 μl of 500 mM MES, pH 5.5. Product fluorescence was detected using either a V1CTOR V2 or FUSION fluorophotometer (PERKIN ELMER LIFE AND ANALYTICAL SCIENCES) with excitation at 340 nm and emission at 615 nm with a 400 us delay. Testing concentrations of different enzyme forms were selected to result in a signal to background ratio (SIB) of 10-30. IC50 values were derived using a standard four-parameter fit to the data. K, values are derived from IC50 values using the following formula, IC50=Ki(1+[S]/KM), Eqn (1), where [S] is the concentration of substrate peptide in the reaction and KM is the Michaelis constant. See Paola Gallinari et al., Modulation of Hepatitis C Virus NS3 Protease and Helicase Activities through the Interaction with NS4A, 38 BIOCHEM. 5620 (1999); Paola Gallinari et al., Multiple Enzymatic Activities Associated with Recombinant NS3 Protein of Hepatitis C Virus, 72(8) J. VIROLOGY 6758 (1998); Mariana Milani et al., A Continuous Assay of Hepatitis C Virus Protease Based on Resonance Energy Transfer Depsipeptide Substrates, 240 ANAL. BIOCHEM. 60 (1996); Shi-Shan Mao et al., A time-resolved, internally quenched fluorescence assay to characterize inhibition of hepatitis C virus nonstructural protein 3-4A protease at low enzyme concentrations, 373 ANALYTICAL BIOCHEMISTRY 1 (2008). Measuring Compound Inhibitory Potency (Replicon EC50 (nM))

[2] = target: NS3/4A protease gt 1b A156V (Hepatitis C virus genotype 1b, UniProt P26663, A1182V); experiment: HCV NS3 protease time-resolved fluorescence (TRF) assay, NS3/4A inhibitory activity (Ki), gt 1b A156V; type: biochemical
Experimental: as §1, §2

NS3/4A protease gt 3a = NS3/4A protease gt 3a (Hepatitis C virus genotype 3a, UniProt Q81258); experiment: HCV NS3 protease time-resolved fluorescence (TRF) assay, NS3/4A inhibitory activity (Ki), gt 3a; type: biochemical; details: NS3/4A enzyme
Experimental: as §1, §2

HCV gt 1b replicon = experiment: HCV replicon assay, compound inhibitory potency (Replicon EC50); type: cell-based; details: Hepatitis C virus, GT1B
Experimental: Measurement of inhibition by compounds was performed using the HCV replicon system. Several different replicons encoding different HCV genotypes or mutations were used. In addition, potency measurements were made using different formats of the replicon assay, including different ways of measurements and different plating formats. See Jan M. Vrolijk et al., A replicon-based bioassay for the measurement of interferons in patients with chronic hepatitis C, 110 J. VIROLOGICAL METHODS 201 (2003); Steven S. Carroll et al., Inhibition of Hepatitis C Virus RNA Replication by 2′-Modified Nucleoside Analogs, 278(14) J. BIOLOGICAL CHEMISTRY 11979 (2003). However, the underlying principles are common to all of these determinations, and are outlined below.
Stable neomycin phosphotransferase encoding replicon-harboring cell lines were used, so all cell lines were maintained under G418 selection prior to the assay. In some cases the cell lines encoded a luciferase:NEO FUSION and could be assayed either directly by determination of RNA copy number, or indirectly through measurement of the luciferase activity.
To initiate an assay, replicon cells were plated in the presence of a dilution series of test compound in the absence of G418. Typically, the assays were performed in a 96-well plate format for manual operation, or a 384-well plate in an automated assay. Replicon cells and compound were incubated for 24 to 48 hours, depending on the assay. At the end of the assay, cells are washed free of media and compound and then lysed. For direct quantitation, RNA levels were measured by 32P-probe hybridization and protection, or in a TAQMAN-based assay and normalized to cellular cyclophilin A RNA levels. In some cases, luciferase activity was measured using a conventional luciferase assay. In all cases, EC50 determinations were calculated as a percent of a DMSO control by fitting the data to a four-parameter fit function.

[3] = 10% fetal bovine serum, read-out: gt 1b Replicon EC50 10% FBS
[4] = 50% normal human serum, read-out: gt 1b Replicon EC50 50% NHS

| Compound | concentration at 4 h [1] | Rat PK 5 mpk AUC [1] | Ki (NS3/4A protease gt 1b) | Ki [2] | Ki (NS3/4A protease gt 3a) | EC50 (HCV gt 1b replicon; [3]) | EC50 (HCV gt 1b replicon; [4]) |
| --- | --- | --- | --- | --- | --- | --- | --- |
| COc1ccc2nc3c(nc2c1)O[C@@H]1C[C@H]2C(=O)N[C@]4(C(=O)NS(=O)(=O)C5CC5)C[C@H]4/C=C\CCCCC[C@H](NC(=O)O[C@@H]4CCC[C@H]4CCCCC3)C(=O)N2C1 [Example 1, (3R,20R,24R,28S,34Z,36S,38R,41S)—N-(Cyclopropylsulfonyl)-9-methoxy-26,40,42-trioxo-4,25-dioxa-1,6,13,27,39-pentaazaheptacyclo[26.13.1.1^3,41.0^5,14.0^7,12.0^20,24,0^36,38]tritetraconta-5,7,9,11,13,34-hexaene-38-carboxamide] | 3.6 µM | 0 | 0.16 nM | 1.6 nM | 0.45 nM | 2 nM | 9 nM |
| COc1ccc2nc3c(nc2c1)O[C@@H]1C[C@H]2C(=O)N[C@]4(C(=O)NS(=O)(=O)C5(C)CC5)C[C@H]4/C=C\CCCCC[C@H](NC(=O)O[C@@H]4CCC[C@H]4CCCCC3)C(=O)N2C1 [Example 2, (3R,20R,24R,28S,34Z,36S,38R,41S)-9-Methoxy-N-[(1-methylcyclopropyl)sulfonyl]-26,40,42-trioxo-4,25-dioxa-1,6,13,27,39-pentaazaheptacyclo[26.13.1.1^3,41.0^5,14.0^7,12.0^20,24.0^36,38]tritetraconta-5,7,9,11,13,34-hexaene-38-carboxamide] | 43 µM | 0.55 | 0.05 nM | 1.1 nM | 0.48 nM | 2 nM | 10 nM |
| COc1ccc2nc3c(nc2c1)O[C@@H]1C[C@H]2C(=O)N[C@]4(C(=O)NS(=O)(=O)C5CC5)C[C@H]4/C=C\CCCCC[C@H](NC(=O)O[C@@H]4C[C@H]4CCCCC3)C(=O)N2C1 [Example 3, (3R,20R,22R,26S,32Z,34S,36R,39S)—N-(Cyclopropylsulfonyl)-9-methoxy-24,38,40-trioxo-4,23-dioxa-1,6,13,25,37-pentaazaheptacyclo[24.13.1.1^3,39.0^5,14.0^7,12.0^20,22.0^34,36]hentetraconta-5,7,9,11,13,32-hexaene-36-carboxamide] | 13 µM | 0.19 | 0.02 nM | 0.8 nM | 0.24 nM | 2 nM | 8 nM |
| COc1ccc2nc3c(nc2c1)O[C@@H]1C[C@H]2C(=O)N[C@]4(C(=O)NS(=O)(=O)C5(C)CC5)C[C@H]4/C=C\CCCCC[C@H](NC(=O)O[C@@H]4C[C@H]4CCCCC3)C(=O)N2C1 [Example 4, (3R,20R,22R,26S,32Z,34S,36R,39S)-9-Methoxy-N-[(1-methylcyclopropyl)sulfonyl]-24,38,40-trioxo-4,23-dioxa-1,6,13,25,37-pentaazaheptacyclo[24.13.1.1^3,39.0^5,14.0^7,12.0^20,22.0^34,36]hentetraconta-5,7,9,11,13,32-hexaene-36-carboxamide] | 19 µM | 0.1 | 0.04 nM | 0.6 nM | 0.27 nM | 2 nM | 4 nM |
| COc1ccc2nc3c(nc2c1)O[C@@H]1C[C@H]2C(=O)N[C@]4(C(=O)NS(=O)(=O)C5CC5)C[C@H]4/C=C\CCCCC[C@H](NC(=O)O[C@]4(C)C[C@H]4CCCCC3)C(=O)N2C1 [Example 5, (3R,20R,22R,26S,32Z,34S,36R,39S)—N-(Cyclopropylsulfonyl)-9-methoxy-22-methyl-24,38,40-trioxo-4,23-dioxa-1,6,13,25,37-pentaazaheptacyclo[24.13.1.1^3,39.0^5,14.0^7,12.0^20,22.0^34,36]hentetraconta-5,7,9,11,13,32-hexaene-36-carboxamide] | 20 µM | 0.18 | 0.02 nM | 0.7 nM | 0.25 nM | 1 nM | 6 nM |
| COc1ccc2nc3c(nc2c1)O[C@@H]1C[C@H]2C(=O)N[C@]4(C(=O)NS(=O)(=O)C5(C)CC5)C[C@H]4/C=C\CCCCC[C@H](NC(=O)O[C@]4(C)C[C@H]4CCCCC3)C(=O)N2C1 [Example 6, (3R,20R,22R,26S,32Z,34S,36R,39S)-9-Methoxyl-22-methyl-N-[(1-methylcyclopropyl)sulfonyl]-24,38,40-trioxo-4,23-dioxa-1,6,13,25,37-pentaazaheptacyclo[24.13.1.1^3,39.0^5,14.0^7,12.0^20,22.0^34,36]hentetraconta-5,7,9,11,13,32-hexaene-36-carboxamide] | 24 µM | 0.16 | 0.03 nM | 0.6 nM | 0.32 nM | 1 nM | 4 nM |
